Data set [1] concerns AMPA receptor. The experiment in a line: Electrophysiological whole cell patch clamp experiments: potentiation of AMPA-induced current. Conditions: for effect on the current induced by application of 30 μM AMPA: cultured mouse neocortical neurons, voltage clamp -60 mV, AMPA 30 μM for 1 second every 45 seconds, test concentrations per FIGS. 2-8 (Cpd 21 15 μM; 22, 24, 25 10 μM; 23a 10-100 μM; 26 3 μM; 27a 0.1-100 μM); for concentration dependence of the potentiating effect: Compound 23a at 10, 30 and 100 μM, Compound 27a at 0.1-100 μM, 30 μM AMPA. Format: cell-based, mouse. Here is the method: Electrophysiological Patch Clamp Experiments
Experiments were performed in voltage clamp using conventional whole cell patch clamp methods (see Hamill O P, Marty A, Neher E, Sakmann B & Sigworth F J: Improved patch-clamp techniques for high-resolution current recording from cells and cell-free membrane patches; Pflügers Arch. 1981 39 85–100), essentially as described Mathiesen et al. (Mathiesen C, Varming T & Jensen L H: In vivo and in vitro evaluation of AMPA receptor antagonists in rat hippocampal neurones and cultured mouse cortical neurons; Eur. J. Pharmacol. 1998 353 159–167).
The following salt solutions were used (mM): NaCl (140), KCl (4), CaCl2 (2), MgCl2 (1), Sucrose (30; Available from Fluka Chemie, Buchs, Switzerland), Tetrodotoxin (0.0003; Available from Alomone Labs, Jerusalem, Israel), Bicuculline Methiodide (0.005; Available from RBI, MA, USA) and HEPES (10, pH 7.4).
Intracellular solution (mM): CsCl (120), CsF (20), MgCl2 (2), EGTA (10), ATP (4), HEPES (10, pH=7.2).
Cell cultures: Mouse neocortical neurons were cultured essentially as described by Drejer et al. (Drejer J, Honoré T & Schousboe A: Excitatory amino acid-induced release of ^3H-GABA from cultured mouse cerebral cortex interneurons; J. Neurosci. 1987 7 2910–2916).
Briefly, the forebrains from embryonic (E17) NMRI mice were removed under sterile conditions. Pregnant (9 days) NMRI mice were obtained from Bomholtgaard Breeding and Research Center, Ry, Denmark. The tissue was chopped in 0.4 mm cubes and the triturated with trypsin (12.5 μg/ml) and DNAse (2.5 μg/ml), 15 minutes, 37° C. The cells were suspended at a concentration of 1×10^6 cells/ml in a slightly modified DMEM containing horse serum (10% (v/v)), penicillin (333 U/ml), paraaminobenzoic acid (1 μg/ml), L-glutamine (0.5 mM), insulin (0.08 U/ml) and KCl (23.8 mM). Horse serum, N2 supplement and culture media were purchased from Life Technologies (GIBCO), Roskilde, Denmark.
The cell suspension was subsequently inoculated into poly-L-lysine coated 35 mm Petri dishes (2 ml/dish). Glass coverslips (3.5 mm) were placed in the dishes before coating. After 24 hours in culture, the medium was replaced by freshly made medium containing 1% N2 supplement instead of serum.
The cells were kept in culture for 7–14 days at 37° C. (5% CO2/95% O2) before experiments were carried out.
Electronics, programs and data acquisition: The amplifier used was the EPC-9 (HEKA-electronics, Lambrect, Germany) run by a Power Macintosh G3 computer via an ITC-16 interface. Experimental conditions were set with the Pulse-software accompanying the amplifier. Data were low pass filtered and sampled directly to hard-disk at a rate of 3 times the cut-off frequency.
Pipettes and electrodes: Pipettes were pulled from borosilicate glass (Modulohm, Copenhagen, Denmark) using a horizontal electrode puller (Zeitz-Instrumente, Augsburg, Germany). The pipette resistances were 1.7–2.4 MΩ in the salt solutions used in these experiments. The pipette electrode was a chloridized silver wire, and the reference was a silverchloride pellet electrode (In Vivo Metric, Healdsburg, USA) fixed to the experimental chamber. The electrodes were zeroed with the open pipette in the bath just prior to sealing.
Experimental procedure: Coverslips were transferred to a 15 μl experimental chamber mounted on the stage of an inverted microscope (IMT-2, Olympus) supplied with Nomarski optics. The neurons were continuously superfused with extracellular saline at a rate of 2.5 ml/min. After giga-seal formation (1–5 GΩ, success-rate≈90%) the whole cell configuration was attained by suction.
The cells were held at a holding voltage of −60 mV, and at the start of each experiment the current was continuously measured for at least 30 seconds to ensure a stable leak current.
AMPA-containing solutions were delivered to the chamber through a custom-made gravity-driven flowpipe, the tip of which was placed approximately 50 μm from the cell. […]

Structures are written as SMILES.

For `CN1CCN(S(=O)(=O)c2ccc3c(c2)S(=O)(=O)NC(C2CCCC2)C3)CC1.Cl` (racemic), the melting point is 234 to 236 °C.

Turning to `Cc1cc2c(cc1S(=O)(=O)N1CCN(C)CC1)S(=O)(=O)NC(C1CCCC1)C2.Cl` (racemic), the melting point was 251 °C (dec.).

As to `O=S1(=O)NC(C2CCCCC2)Cc2ccc(S(=O)(=O)N3CCCCC3)cc21` (racemic) [Compound 21, (3RS)-3-Cyclohexyl-7-(piperidine-1-sulfonyl)-3,4-dihydro-2H-benzo[e][1,2]thiazine-1,1-dioxide], in data set [1], the “effect on the current induced by application of 30 μM AMPA” value (“effect on the current induced” below) is reported as “potentiate the current induced by application of 30 μM AMPA”.

In the case of `O=S1(=O)NC(C2CCCC2)Cc2ccc(S(=O)(=O)N3CCCCC3)cc21` (racemic) [Compound 22, (3RS)-3-Cyclopentyl-7-(piperidine-1-sulfonyl)-3,4-dihydro-2H-benzo[e][1,2]thiazine-1,1-dioxide], the “effect on the current induced” value in data set [1] was “potentiate the current induced by application of 30 μM AMPA”.

For `CN1CCN(S(=O)(=O)c2ccc3c(c2)S(=O)(=O)NC(C2CCCC2)C3)CC1` (racemic) [Compound 23a, (3RS)-3-Cyclopentyl-7-(4-methyl-piperazine-1-sulfonyl)-3,4-dihydro-2H-benzo[e][1,2]thiazine-1,1-dioxide], in data set [1], the “concentration dependence of the potentiating effect” value is on record as “concentration-dependent” and the “effect on the current induced” value is reported as “potentiate the current induced by application of 30 μM AMPA”.

As for `CN1CCN(S(=O)(=O)c2ccc3c(c2)S(=O)(=O)NC(C2CCCCC2)C3)CC1` (racemic) [Compound 24, (3RS)-3-Cyclohexyl-7-(4-methyl-piperazine-1-sulfonyl)-3,4-dihydro-2H-benzo[e][1,2]thiazine-1,1-dioxide], the “effect on the current induced” value in data set [1] is “potentiate the current induced by application of 30 μM AMPA”.

Consider `Cc1cc2c(cc1S(=O)(=O)N1CCCCC1)S(=O)(=O)NC(C1CCCC1)C2` (racemic) [Compound 25, (3RS)-3-Cyclopentyl-6-methyl-7-(piperidine-1-sulfonyl)-3,4-dihydro-2H-benzo[e][1,2]thiazine-1,1-dioxide], for which the “effect on the current induced” value in data set [1] is “potentiate the current induced by application of 30 μM AMPA”.

Regarding `Cc1cc2c(cc1S(=O)(=O)N1CCOCC1)S(=O)(=O)NC(C1CCCC1)C2` (racemic) [Compound 26, (3RS)-3-Cyclopentyl-6-methyl-7-(morpholine-4-sulfonyl)-3,4-dihydro-2H-benzo[e][1,2]thiazine-1,1-dioxide], the “effect on the current induced” value in data set [1] is “potentiate the current induced by application of 30 μM AMPA”.

Consider `Cc1cc2c(cc1S(=O)(=O)N1CCN(C)CC1)S(=O)(=O)NC(C1CCCC1)C2` (racemic) [Compound 27a, (3RS)-3-Cyclopentyl-6-methyl-7-(4-methyl-piperazine-1-sulfonyl)-3,4-dihydro-2H-benzo[e][1,2]thiazine-1,1-dioxide], for which, in data set [1], the “concentration dependence of the potentiating effect” value is recorded as “concentration-dependent” and the “effect on the current induced” value is given as “potentiate the current induced by application of 30 μM AMPA”.

The values are drawn from patent US7199118B2, “Benzothiazine derivatives, their preparation and use” (NeuroSearch A/S, priority 2001, dated 2007).
